Converted amounts (≈) assume the structure as drawn.
Key:
[1] = test system: MCF-7 breast cancer cells; conditions: read-out: IC50 MCF-7; literature hybrids 5-7 and 5-FU; cited from earlier work
MDA-MB-231 = experiment: MTT cytotoxicity assay on MDA-MB-231; format: cell-based
Caco-2 = experiment: MTT cytotoxicity assay on Caco-2; format: cell-based; conditions: Homo sapiens, Caco-2, read-out: IC50 Caco-2
HEK-293 = experiment: MTT cytotoxicity assay on non-cancerous HEK-293; format: cell-based; conditions: Homo sapiens, HEK293, read-out: IC50 HEK-293

Row | Compound | IC50 [1] [µM] | IC50 (MDA-MB-231; Homo sapiens, MDA-MB-231, read-out: IC50 MDA-MB-231) [µg/mL] | SI HEK/MDA (MDA-MB-231; selectivity index, HEK-293 vs MDA-MB-231) | IC50 (Caco-2) [µg/mL] | IC50 (HEK-293) [µg/mL]
1 | O=c1[nH]cc(F)c(=O)[nH]1 [Compound 5-FU, 5-FU] | 12.4 | – | – | – | –
2 | Cc1ccc(CNC(=O)Cn2cc(CSc3nc4ccccc4[nH]3)nn2)cc1 [Compound 11] | – | 68.3 ± 3.1 (≈ 174 µM) | 0.93 | 63.8 ± 1.09 (≈ 163 µM) | 63.4 ± 2.5 (≈ 162 µM)
